According to patent publication US9936700B2, “Substituted quinoxaline derivatives as pest control agent” (BAYER CROPSCIENCE AKTIENGESELLSCHAFT, priority 2013, dated 2018):
Where two headings read alike, the source gives them in different places.

Tests used:
Aphis gossypii = Aphis gossypii spray test; format: in vivo; conditions: cotton plants, after 6 days
Method: Aphis gossypii—spray test
(§1) • Solvent: 7 parts by weight of dimethylformamide • Emulsifier: alkylaryl polyglycol ether
(§2) To produce further test concentrations, the preparation is diluted with emulsifier-containing water. If the addition of ammonium salts or/and penetrants is required, these are each added in a concentration of 1000 ppm to the formulation solution.
After 6 days, the kill in % is determined. 100% means that all the aphids have been killed; 0% means that no aphids have been killed.

Nilaparvata lugens [1] = assay: Nilaparvata lugens spray test (solvent dimethylformamide, 7 days); format: in vivo; conditions: rice plants, after 7 days
Method: (§3) Nilaparvata lugens—spray test
If the addition of ammonium salts or/and penetrants is required, these are each added in a concentration of 1000 ppm to the formulation solution.
After 7 days, the efficacy in % is determined.

Myzus persicae = Myzus persicae spray test (MYZUPE); format: in vivo; conditions: Chinese cabbage leaf discs, after 6 days
Method: Myzus persicae—spray test (MYZUPE)
• Solvent: 78 parts by weight of acetone • 1.5 parts by weight of dimethylformamide • Emulsifier: 0.5 part by weight of alkylaryl polyglycol ether
After 6 days, the efficacy in % is determined. 100% means that all the aphids have been killed; 0% means that no aphids have been killed.

[2] = log P by reversed-phase HPLC (EEC Directive 79/831 Annex V.A8); format: physicochemical; conditions: for chromatographic logP: reversed-phase C18 HPLC column
Text: NMR data and log P values: log P (HCOOH)=log P[a] log P (neutral)=log P[b]
^[a] […] Called log P (HCOOH) in the table.
^[b] […] Called log P (neutral) in the table.

Tetranychus urticae = Tetranychus urticae spray test, OP-resistant (TETRUR); format: in vivo; conditions: 500 g/ha, bean leaf discs, after 6 days
Method: Tetranychus urticae—spray test, OP-resistant (TETRUR)
(§4) • Solvent: 78.0 parts by weight of acetone • 1.5 parts by weight of dimethylformamide • Emulsifier: 0.5 part by weight of alkylaryl polyglycol ether
After 6 days, the efficacy in % is determined. 100% means that all the spider mites have been killed; 0% means that no spider mites have been killed.

Boophilus microplus = Boophilus microplus test (BOOPMI injection); format: in vivo; conditions: 20 μg/animal, injection into the abdomen, after 7 days
Method: Boophilus microplus test (BOOPMI injection) • Solvent: dimethyl sulfoxide To produce a suitable preparation of active compound, 10 mg of active compound are mixed with 0.5 ml of solvent and the concentrate is diluted with solvent to the desired concentration. The active compound solution is injected into the abdomen (Boophilus microplus), and the animals are transferred into dishes and stored in a climate-controlled room. Efficacy is assessed after 7 days by laying of fertile eggs. Eggs which are not visibly fertile are stored in a climate-controlled cabinet until the larvae hatch after about 42 days.

Nephotettix cincticeps = Nephotettix cincticeps test (NEPHCI); format: in vivo; conditions: 100 ppm, rice plants, after 14 days
Method: Nephotettix cincticeps test (NEPHCI)
In the event that addition of ammonium salts or/and penetrants (rapeseed oil methyl ester) is required, these are each pipetted in a concentration of 1000 ppm after the finished formulation solution has been diluted.
After 14 days, the kill in % is determined. 100% means that all leafhoppers have been killed; 0% means that none of the leafhoppers have been killed.

Bemisia tabaci = Bemisia tabaci spray test; format: in vivo; conditions: cotton plants, after 8 days
Method: Bemisia Tabaci—Spray Test
as §1, §2
After 8 days, the efficacy in % is determined. 100% means that all the whiteflies have been killed; 0% means that none of the whiteflies have been killed.

Haemonchus contortus = Haemonchus contortus test (HAEMCO); format: in vivo; conditions: after 5 days
Text: Haemonchus contortus-test ([…]) • Solvent: dimethyl sulfoxide […] Vessels containing the active compound preparation of the desired concentration are populated with about 40 larvae of the red stomach worm (Haemonchus contortus).

Nilaparvata lugens [3] = conditions: 500 g/ha, rice plants, after 4 days
Method: as §3
• Solvent: 52.5 parts by weight of acetone • 7 parts by weight of dimethylformamide • Emulsifier: alkylaryl polyglycol ether
To produce further test concentrations, the preparation is diluted with emulsifier-containing water.
After 4 days, the efficacy in % is determined. 100% means that all of the planthoppers have been killed; 0% means that none of the planthoppers have been killed.

Phaedon cochleariae = Phaedon cochleariae spray test (PHAECO); format: in vivo; conditions: 500 g/ha, Chinese cabbage leaf discs, after 7 days
Method: Phaedon cochleariae—spray test (PHAECO)
as §4
After 7 days, the efficacy in % is determined. 100% means that all the beetle larvae have been killed; 0% means that no beetle larvae have been killed.

Meloidogyne incognita = conditions: 20 ppm, lettuce, after 14 days
Method: Meloidogvne incognita test (MELGIN)
• Solvent: 125.0 parts by weight of acetone
The lettuce seeds germinate and the plants develop. The galls develop on the roots.
After 14 days, the nematicidal efficacy in % is determined by the formation of galls.

[4] = test system: Nippostrongylus brasiliensis; conditions: 10 ppm, adult worms, 37° C., OD at 405 nm versus negative control
Method: Nippostrongylus brasiliensis test (NIPOBR)
Test method for in vitro experiments with Nippostrongylus brasiliensis
Adult Nippostrongylus brasiliensis is isolated from the small intestine of female Wistar rats and transferred into buffer solution containing 100 U/ml penicillin, 0.1 mg/ml streptomycin and 2.5 μg/ml amphotericin B.
The incubation of the worms (both sexes) is carried out in 1.0 ml of the medium also used for determining the acetylcholinesterase activity.
The compounds are dissolved in DMSO and added to the incubation medium such that final concentrations of 10 and 1 μg/ml, respectively, are present. The controls contain only DMSO.
Incubation is carried out at 37° C. and 5% CO2.
The enzyme determination is carried out using an aliquot of the medium. The AChE to be measured cleaves the substrate acetylthiocholine iodide (which is present as the iodide salt) into the products acetate and thiocholine.
In the subsequent reaction, thiocholine forms, with dithionitrobenzoic acid (DTNB, Ellman's reagent), a yellow dye (thionitrobenzoate).
The intensity of the color (=activity of AChE) is determined via the optical density (OD) photometrically at 405 nm and compared to the OD of the negative control.

Cooperia curticei = Cooperia curticei test (COOPCU); format: in vivo; conditions: after 5 days
Method: Cooperia curticei test (COOPCU)
• Solvent: dimethyl sulfoxide
To produce a suitable preparation of active compound, 10 mg of active compound are mixed with 0.5 ml of dimethyl sulfoxide and the concentrate is diluted with “Ringer's solution” to the desired concentration.
Vessels containing the active compound preparation of the desired concentration are populated with about 40 nematode larvae (Cooperia curticei).
After 5 days, the kill in % is determined. 100% means that all the larvae have been killed; 0% means that none of the larvae have been killed.

Spodoptera frugiperda = Spodoptera frugiperda spray test (SPODFR); format: in vivo; conditions: 500 g/ha, maize leaf discs, after 7 days
Method: Spodoptera frugiperda—spray test (SPODFR)
• Solvent: 78.0 parts by weight of acetone • 1.5 parts by weight of dimethylformamide • Emulsifier: 0.5 parts by weight of alkylaryl polyglycol ether
After 7 days, the efficacy in % is determined. 100% means that all the caterpillars have been killed; 0% means that no caterpillars have been killed.

[5] = acidic range, pH 2.7, 0.1% aqueous formic acid/acetonitrile, read-out: logP [a] = log P (HCOOH)
[6] = neutral range, pH 7.8, aqueous ammonium hydrogencarbonate/acetonitrile, read-out: logP [b] = log P (neutral)
[7] = acidic range, pH 2.7, 0.1% aqueous formic acid/acetonitrile
[8] = neutral range, pH 7.8, aqueous ammonium hydrogencarbonate/acetonitrile

In the case of CCc1cnccc1-c1cnc2cc3c(cc2n1)OC(F)(F)O3 [Example I-1, 6-(3-Ethylpyridin-4-yl)-2,2-difluoro[1,3]dioxolo[4,5-g]quinoxaline], the “efficacy (kill of aphids)” value (Aphis gossypii; 20 ppm) is reported as 85%, the “efficacy (planthoppers killed)” value (Nilaparvata lugens [1]; 20 ppm) is reported as 100% and the “efficacy (aphids killed)” value (Myzus persicae; 500 g/ha) is reported as 90%. For the same molecule, the chromatographic logP [2, 5] was 2.34, the chromatographic logP [2, 6] was 3.23 and the “efficacy (spider mites killed)” value (Tetranychus urticae) was 100%.
For Cc1cnccc1-c1cnc2cc(C(F)(F)F)ccc2n1 [Example I-2, 2-(3-Methylpyridin-4-yl)-6-(trifluoromethyl)quinoxaline], the “efficacy (laying of fertile eggs)” value (Boophilus microplus) was 85%, the “efficacy (kill of leafhoppers)” value (Nephotettix cincticeps) was 100% and the “efficacy (kill of aphids)” value (Aphis gossypii; 100 ppm) was 80%. For the same molecule, the “efficacy (planthoppers killed)” value (Nilaparvata lugens [1]; 20 ppm) was 100%, the “efficacy (aphids killed)” value (Myzus persicae; 750 g/ha) was 90% and the chromatographic logP [2, 5] was 2.14. For the same molecule, the chromatographic logP [2, 6] was 2.89 and the “efficacy (whiteflies killed)” value (Bemisia tabaci; 20 ppm) was 100%.
In the case of FC1(F)Oc2cc3nc(Cl)c(-c4ccc(Cl)cc4)nc3cc2O1 [Example I-4, 6-Chloro-7-(4-chlorophenyl)-2,2-difluoro[1,3]dioxolo[4,5-g]quinoxaline], the “efficacy (kill of larvae)” value (Haemonchus contortus; 20 ppm) is reported as 80% and the chromatographic logP [2, 5] is reported as 5.27.
In the case of FC(F)(F)c1ccc2nc(-c3ccncc3)cnc2c1 [Example I-7], the “efficacy (laying of fertile eggs)” value (Boophilus microplus) is reported as 80%, the “efficacy (planthoppers killed)” value (Nilaparvata lugens [3]) is reported as 90% and the “efficacy (beetle larvae killed)” value (Phaedon cochleariae) is reported as 100%. For the same molecule, the “efficacy (aphids killed)” value (Myzus persicae; 500 g/ha) was 90%, the “nematicidal efficacy (formation of galls)” value (Meloidogyne incognita) was 90% and the “logP [a] = log P (HCOOH)” value [2, 7] was 2.17. The “logP [b] = log P (neutral)” value [2, 8] was 2.75 and the “efficacy (whiteflies killed)” value (Bemisia tabaci; 100 ppm) was 100%.
For FC(F)(F)c1ccc2nc(-c3cccnc3)cnc2c1 [Example I-8], the “efficacy (kill of larvae)” value (Haemonchus contortus; 100 ppm) was 100%, the “efficacy (category of AChE inhibition)” value [4] was 84% (84% (60-84% inhibition)) and the “efficacy (kill of larvae)” value (Cooperia curticei; 100 ppm) was 100%. For the same molecule, the “logP [a] = log P (HCOOH)” value [2, 7] was 2.46.
For FC(F)(F)c1ccc2ncc(-c3ccncc3)nc2c1 [Example I-9], the “efficacy (kill of aphids)” value (Aphis gossypii; 100 ppm) was 85%, the “efficacy (kill of larvae)” value (Haemonchus contortus; 100 ppm) was 100% and the “efficacy (category of AChE inhibition)” value [4] was 100% (100% (>84-100% inhibition)). For the same molecule, the “efficacy (beetle larvae killed)” value (Phaedon cochleariae) was 100%, the “efficacy (kill of larvae)” value (Cooperia curticei; 100 ppm) was 100% and the “efficacy (aphids killed)” value (Myzus persicae; 500 g/ha) was 90%. The “logP [a] = log P (HCOOH)” value [2, 7] was 2.13 and the “logP [b] = log P (neutral)” value [2, 8] was 2.75.
With COc1cnccc1-c1cnc2cc(C(F)(F)F)ccc2n1 [Example I-11] the “efficacy (kill of aphids)” value (Aphis gossypii; 100 ppm) was 100%, the “efficacy (planthoppers killed)” value (Nilaparvata lugens [1]; 100 ppm) was 90% and the “efficacy (aphids killed)” value (Myzus persicae; 750 g/ha) was 90%. For the same molecule, the “logP [a] = log P (HCOOH)” value ([2]; pH 2.7) was 2.59 and the “efficacy (whiteflies killed)” value (Bemisia tabaci; 100 ppm) was 100%.
For CCSc1ccccc1-c1cnc2cc(C(F)(F)F)ccc2n1 [Example I-14], the “efficacy (beetle larvae killed)” value (Phaedon cochleariae) was 100%, the “efficacy (caterpillars killed)” value (Spodoptera frugiperda) was 100% and the “logP [a] = log P (HCOOH)” value ([2]; pH 2.7) was 4.80. For the same molecule, the “logP [b] = log P (neutral)” value ([2]; pH 7.8) was 4.78 and the “efficacy (spider mites killed)” value (Tetranychus urticae) was 100%.
For CC[S+]([O-])c1ccccc1-c1cnc2cc(C(F)(F)F)ccc2n1 (stereo not drawn) [Example I-15], the “efficacy (beetle larvae killed)” value (Phaedon cochleariae) was 83%, the “efficacy (caterpillars killed)” value (Spodoptera frugiperda) was 100% and the “logP [a] = log P (HCOOH)” value ([2]; pH 2.7) was 2.79. The “logP [b] = log P (neutral)” value ([2]; pH 7.8) was 2.78, the “efficacy (whiteflies killed)” value (Bemisia tabaci; 100 ppm) was 90% and the “efficacy (spider mites killed)” value (Tetranychus urticae) was 100%.
In the case of CCc1cnccc1-c1cnc2cc(C(F)(F)F)ccc2n1 [Example I-26], the “efficacy (planthoppers killed)” value (Nilaparvata lugens [1]; 100 ppm) is reported as 80%, the “logP [a] = log P (HCOOH)” value ([2]; pH 2.7) is reported as 2.53 and the “logP [b] = log P (neutral)” value ([2]; pH 7.8) is reported as 3.28. For the same molecule, the “efficacy (whiteflies killed)” value (Bemisia tabaci; 100 ppm) was 96% and the “efficacy (spider mites killed)” value (Tetranychus urticae) was 90%.
With CCS(=O)(=O)c1ccccc1-c1cnc2cc(Cl)ccc2n1 [Example I-29] the “efficacy (caterpillars killed)” value (Spodoptera frugiperda) was 83%, the “logP [a] = log P (HCOOH)” value ([2]; pH 2.7) was 2.81 and the “logP [b] = log P (neutral)” value ([2]; pH 7.8) was 2.82.
In the case of Cc1cnccc1-c1cnc2ccc(C(F)(F)F)cc2n1 [Example I-30], the “efficacy (kill of aphids)” value (Aphis gossypii; 100 ppm) is reported as 100%, the “efficacy (planthoppers killed)” value (Nilaparvata lugens [1]; 100 ppm) is reported as 80% and the “logP [a] = log P (HCOOH)” value ([2]; pH 2.7) is reported as 2.12. For the same molecule, the “logP [b] = log P (neutral)” value ([2]; pH 7.8) was 2.89 and the “efficacy (whiteflies killed)” value (Bemisia tabaci; 100 ppm) was 100%.
With Cc1cnccc1-c1cnc2cc3c(cc2n1)OC(F)(F)O3 [Example I-32] the “efficacy (kill of aphids)” value (Aphis gossypii; 100 ppm) was 90%, the “efficacy (kill of larvae)” value (Haemonchus contortus; 20 ppm) was 80% and the “efficacy (kill of larvae)” value (Cooperia curticei; 20 ppm) was 80%. The “efficacy (aphids killed)” value (Myzus persicae; 500 g/ha) was 90%, the “logP [a] = log P (HCOOH)” value ([2]; pH 2.7) was 1.99 and the “logP [b] = log P (neutral)” value ([2]; pH 7.8) was 2.85.
In the case of CCSc1ccccc1-c1cnc2cc3c(cc2n1)OC(F)(F)O3 [Example I-34], the “efficacy (beetle larvae killed)” value (Phaedon cochleariae) is reported as 100%, the “logP [a] = log P (HCOOH)” value ([2]; pH 2.7) is reported as 4.73 and the “efficacy (spider mites killed)” value (Tetranychus urticae) is reported as 90%.
With CCSc1ccccc1-c1cnc2ccc(C(F)(F)F)cc2n1 [Example I-36] the “efficacy (laying of fertile eggs)” value (Boophilus microplus) was 90%, the “efficacy (beetle larvae killed)” value (Phaedon cochleariae) was 83% and the “efficacy (aphids killed)” value (Myzus persicae; 500 g/ha) was 90%. The “logP [a] = log P (HCOOH)” value ([2]; pH 2.7) was 4.79 and the “efficacy (spider mites killed)” value (Tetranychus urticae) was 90%.
In the case of Clc1ccc2nc(-c3cccnc3)cnc2c1 [Example I-40], the “efficacy (kill of larvae)” value (Cooperia curticei; 20 ppm) is reported as 90%, the “logP [a] = log P (HCOOH)” value [2, 7] is reported as 2.01 and the “logP [b] = log P (neutral)” value [2, 8] is reported as 2.43.
For FC1(F)Oc2cc3ncc(-c4ccncc4)nc3cc2O1 [Example I-74], the “nematicidal efficacy (formation of galls)” value (Meloidogyne incognita) was 90% and the “logP [a] = log P (HCOOH)” value [2, 7] was 1.98.
